Assay results taken from patent US20250154169A1, “COMPOUNDS AND METHODS FOR MODULATING SPLICING” (REMIX THERAPEUTICS INC., priority 2021, published 2025).
Where two headings read alike, the source gives them in different places.

Key:
Assay type in all cases: cell-based, human
HTT mRNA [1] = assay: Splicing RT-qPCR assay, HTT canonical (CJ) and alternative (AJ) junction mRNA; details: Homo sapiens, A673 or K562 cells, 24 hours compound treatment; for IC50: 24 h, read-out: HTT CJ (IC50, decrease in canonical junction mRNA); for AC50: read-out: HTT AJ (AC50, increase in alternative junction mRNA)
How it was run: (§1)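 Compound-induced exon inclusion is tracked as an increase in AJ transcript alongside the CJ transcript. Cells (A673 normalized to PPIA; K562 to GAPDH or GUSB) are dosed 24 h with a serial dilution topping at 10 uM, ≤0.25% DMSO, then lysed and analysed by RT-qPCR in at least duplicate.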

MYB mRNA = assay: Splicing RT-qPCR assay, MYB canonical (CJ) and alternative (AJ) junction mRNA; details: Homo sapiens; for AC50: read-out: MYB AJ (AC50, increase in alternative junction mRNA)
How it was run: as §1

SMN2 mRNA = assay: Splicing RT-qPCR gene panel, SMN2 canonical junction (CJ) mRNA; details: Homo sapiens, Tables 4A/4B, read-out: SMN2 (IC50, decrease in CJ mRNA, gene panel)
How it was run: (§2)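 A673 or K562 cells treated 24 h at 37° C. with an 11-point 3-fold dilution series (top 10 uM, ≤0.25% DMSO). Lysates analysed by one-step RT-qPCR for canonical exon-exon junction transcripts, normalized to GAPDH, GUSB or PPIA and DMSO control (2^(−ΔΔCt)), then converted to percentage response.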

Target C mRNA = assay: Splicing RT-qPCR gene panel, Target C canonical junction (CJ) mRNA; details: Homo sapiens, Tables 4A/4B, read-out: Target C (IC50, decrease in CJ mRNA, gene panel)
How it was run: as §2

HTT mRNA [2] = assay: Splicing RT-qPCR gene panel, HTT canonical junction (CJ) mRNA; details: Homo sapiens, Tables 4A/4B, read-out: HTT (IC50, decrease in CJ mRNA, gene panel)
How it was run: as §2

[3] = 24 h, A673 or K562 cells, 24 hours compound treatment, RT-qPCR
[4] = 24 h, A673 or K562 cells, 24 hours compound treatment, RT-qPCR, read-out: MYB CJ (IC50, decrease in canonical junction mRNA)
[5] = Tables 4A/4B, canonical junction qPCR panel, read-out: MYB (IC50, decrease in CJ mRNA, gene panel)

## Cc1cn2cc(NC(=O)c3ccc(N4CCC(NCc5ccccn5)CC4)c4cn(C)nc34)cc(F)c2n1 [Compound 347, N-{8-fluoro-2-methylimidazo[1,2-a]pyridin-6-yl}-2-methyl-4-{4-[(pyridin-2-ylmethyl)amino]piperidin-1-yl}indazole-7-carboxamide]
HTT mRNA [1]
  IC50: 1 to 10 µM
  AC50: 1 to 10 µM
MYB mRNA; [3]
  AC50: < 0.1 µM
MYB mRNA; [4]
  IC50: < 0.1 µM
MYB mRNA; [5]
  IC50: < 0.1 µM
SMN2 mRNA
  IC50: < 0.1 µM
Target C mRNA
  IC50: 1 to 10 µM
HTT mRNA [2]
  IC50: 1 to 10 µM

## Cc1cn2cc(NC(=O)c3ccc(N4CCC5(CC4)CNC5)c4cn(C)nc34)cc(F)c2n1 [Compound 348, 4-{2,7-diazaspiro[3.5]nonan-7-yl}-N-{8-fluoro-2-methylimidazo[1,2-a]pyridin-6-yl}-2-methylindazole-7-carboxamide]
HTT mRNA [1]
  IC50: 1 to 10 µM
  AC50: 1 to 10 µM
MYB mRNA; [3]
  AC50: < 0.1 µM
MYB mRNA; [4]
  IC50: < 0.1 µM
MYB mRNA; [5]
  IC50: < 0.1 µM
SMN2 mRNA
  IC50: < 0.1 µM
Target C mRNA
  IC50: 1 to 10 µM
HTT mRNA [2]
  IC50: 1 to 10 µM

## Cc1cn2cc(NC(=O)c3ccc(N4CCC5(CCCN5)CC4)c4cn(C)nc34)cc(F)c2n1 [Compound 349, 4-{1,8-diazaspiro[4.5]decan-8-yl}-N-{8-fluoro-2-methylimidazo[1,2-a]pyridin-6-yl}-2-methylindazole-7-carboxamide]
HTT mRNA [1]
  IC50: 0.1 to 1 µM
  AC50: 0.1 to 1 µM
MYB mRNA; [3]
  AC50: < 0.1 µM
MYB mRNA; [4]
  IC50: < 0.1 µM
MYB mRNA; [5]
  IC50: < 0.1 µM
SMN2 mRNA
  IC50: < 0.1 µM
Target C mRNA
  IC50: 0.1 to 1 µM
HTT mRNA [2]
  IC50: 0.1 to 1 µM

## Cc1cn2cc(NC(=O)c3ccc(N4CCNCC4)c4cn(CC(C)(C)O)nc34)cc(F)c2n1 [Compound 354, N-{8-fluoro-2-methylimidazo[1,2-a]pyridin-6-yl}-2-(2-hydroxy-2-methylpropyl)-4-(piperazin-1-yl)indazole-7-carboxamide]
HTT mRNA [1]
  IC50: > 10 µM
  AC50: > 10 µM
MYB mRNA; [3]
  AC50: 1 to 10 µM
MYB mRNA; [4]
  IC50: 1 to 10 µM
MYB mRNA; [5]
  IC50: 1 to 10 µM
SMN2 mRNA
  IC50: 0.1 to 1 µM
Target C mRNA
  IC50: > 10 µM
HTT mRNA [2]
  IC50: > 10 µM

## Cc1cn2cc(NC(=O)c3ccc(N4CCNCC4)c4cn(C5CC(O)C5)nc34)cc(F)c2n1 (stereo not drawn) [Compound 355, N-{8-fluoro-2-methylimidazo[1,2-a]pyridin-6-yl}-2-(3-hydroxycyclobutyl)-4-(piperazin-1-yl)indazole-7-carboxamide]
HTT mRNA [1]
  IC50: > 10 µM
  AC50: 1 to 10 µM
MYB mRNA; [3]
  AC50: < 0.1 µM
MYB mRNA; [4]
  IC50: < 0.1 µM
MYB mRNA; [5]
  IC50: < 0.1 µM
SMN2 mRNA
  IC50: < 0.1 µM
Target C mRNA
  IC50: > 10 µM
HTT mRNA [2]
  IC50: > 10 µM

## Cc1cn2cc(NC(=O)c3ccc(N4CCNCC4)c4cn(C5CCOC5)nc34)cc(F)c2n1 (stereo not drawn) [Compound 356, N-{8-fluoro-2-methylimidazo[1,2-a]pyridin-6-yl}-2-(oxolan-3-yl)-4-(piperazin-1-yl)indazole-7-carboxamide]
HTT mRNA [1]
  IC50: > 10 µM
  AC50: > 10 µM
MYB mRNA; [3]
  AC50: 0.1 to 1 µM
MYB mRNA; [4]
  IC50: 0.1 to 1 µM
MYB mRNA; [5]
  IC50: 0.1 to 1 µM
SMN2 mRNA
  IC50: < 0.1 µM
Target C mRNA
  IC50: > 10 µM
HTT mRNA [2]
  IC50: > 10 µM

## Cc1cn2cc(NC(=O)c3ccc(N4CCNCC4)c4cn(CC5(O)CC5)nc34)cc(F)c2n1 [Compound 358, N-{8-fluoro-2-methylimidazo[1,2-a]pyridin-6-yl}-2-[(1-hydroxycyclopropyl)methyl]-4-(piperazin-1-yl)indazole-7-carboxamide]
HTT mRNA [1]
  IC50: 1 to 10 µM
  AC50: > 10 µM
MYB mRNA; [3]
  AC50: 0.1 to 1 µM
MYB mRNA; [4]
  IC50: 0.1 to 1 µM
MYB mRNA; [5]
  IC50: 0.1 to 1 µM
SMN2 mRNA
  IC50: < 0.1 µM
Target C mRNA
  IC50: > 10 µM
HTT mRNA [2]
  IC50: 1 to 10 µM

## CNc1cc(N2CCNCC2)c2cn(C)nc2c1C(=O)Nc1cc(F)c2nc(C)cn2c1 [Compound 362, N-{8-fluoro-2-methylimidazo[1,2-a]pyridin-6-yl}-2-methyl-6-(methylamino)-4-(piperazin-1-yl) indazole-7-carboxamide]
HTT mRNA [1]
  IC50: > 10 µM
  AC50: > 10 µM
MYB mRNA; [3]
  AC50: 1 to 10 µM
MYB mRNA; [4]
  IC50: 1 to 10 µM
MYB mRNA; [5]
  IC50: 1 to 10 µM
SMN2 mRNA
  IC50: 0.1 to 1 µM
Target C mRNA
  IC50: > 10 µM
HTT mRNA [2]
  IC50: > 10 µM

## Cc1cn2cc(NC(=O)c3ccc(N4CCNCC4)c4cn(CC(C)(F)F)nc34)cc(F)c2n1 [Compound 364, 2-(2,2-difluoropropyl)-N-{8-fluoro-2-methylimidazo[1,2-a]pyridin-6-yl}-4-(piperazin-1-yl) indazole-7-carboxamide; trifluoroacetic acid]
HTT mRNA [1]
  IC50: 1 to 10 µM
  AC50: > 10 µM
MYB mRNA; [3]
  AC50: 0.1 to 1 µM
MYB mRNA; [4]
  IC50: 1 to 10 µM
MYB mRNA; [5]
  IC50: 1 to 10 µM
SMN2 mRNA
  IC50: < 0.1 µM
Target C mRNA
  IC50: > 10 µM
HTT mRNA [2]
  IC50: 1 to 10 µM

## Cc1cn2cc(NC(=O)c3ccc(N4CCNCC4)c4cn(Cc5cnco5)nc34)cc(F)c2n1 [Compound 366, N-{8-fluoro-2-methylimidazo[1,2-a]pyridin-6-yl}-2-(1,3-oxazol-5-ylmethyl)-4-(piperazin-1-yl) indazole-7-carboxamide]
HTT mRNA [1]
  IC50: 1 to 10 µM
  AC50: 1 to 10 µM
MYB mRNA; [3]
  AC50: < 0.1 µM
MYB mRNA; [4]
  IC50: < 0.1 µM
MYB mRNA; [5]
  IC50: < 0.1 µM
SMN2 mRNA
  IC50: < 0.1 µM
Target C mRNA
  IC50: > 10 µM
HTT mRNA [2]
  IC50: 1 to 10 µM

## COC(C)Cn1cc2c(N3CCNCC3)ccc(C(=O)Nc3cc(F)c4nc(C)cn4c3)c2n1 (stereo not drawn) [Compound 367, N-{8-fluoro-2-methylimidazo[1,2-a]pyridin-6-yl}-2-(2-methoxypropyl)-4-(piperazin-1-yl) indazole-7-carboxamide; trifluoroacetic acid]
HTT mRNA [1]
  IC50: 1 to 10 µM
  AC50: 1 to 10 µM
MYB mRNA; [3]
  AC50: 0.1 to 1 µM
MYB mRNA; [4]
  IC50: 0.1 to 1 µM
MYB mRNA; [5]
  IC50: 0.1 to 1 µM
SMN2 mRNA
  IC50: < 0.1 µM
Target C mRNA
  IC50: > 10 µM
HTT mRNA [2]
  IC50: 1 to 10 µM

## Cc1cn2cc(NC(=O)c3ccc(N4CCNCC4)c4cn(Cc5cn(C)nn5)nc34)cc(F)c2n1 [Compound 368, N-{8-fluoro-2-methylimidazo[1,2-a]pyridin-6-yl}-2-[(1-methyl-1,2,3-triazol-4-yl)methyl]-4-(piperazin-1-yl) indazole-7-carboxamide; trifluoroacetic acid]
HTT mRNA [1]
  IC50: > 10 µM
  AC50: > 10 µM
MYB mRNA; [3]
  AC50: 0.1 to 1 µM
MYB mRNA; [4]
  IC50: 0.1 to 1 µM
MYB mRNA; [5]
  IC50: 0.1 to 1 µM
SMN2 mRNA
  IC50: < 0.1 µM
Target C mRNA
  IC50: > 10 µM
HTT mRNA [2]
  IC50: > 10 µM

## Cc1cn2cc(NC(=O)c3ccc(N4CCC(NCCO)CC4)c4cn(C)nc34)cc(F)c2n1 [Compound 369, N-{8-fluoro-2-methylimidazo[1,2-a]pyridin-6-yl}-4-{4-[(2-hydroxyethyl)amino]piperidin-1-yl}-2-methylindazole-7-carboxamide]
HTT mRNA [1]
  IC50: 0.1 to 1 µM
  AC50: 0.1 to 1 µM
MYB mRNA; [3]
  AC50: < 0.1 µM
MYB mRNA; [4]
  IC50: < 0.1 µM
MYB mRNA; [5]
  IC50: < 0.1 µM
SMN2 mRNA
  IC50: < 0.1 µM
Target C mRNA
  IC50: 1 to 10 µM
HTT mRNA [2]
  IC50: 0.1 to 1 µM

## Cc1cn2cc(NC(=O)c3ccc(N4CCC(N)(C(F)(F)F)CC4)c4cn(C)nc34)cc(F)c2n1 [Compound 370, 4-[4-amino-4-(trifluoromethyl)piperidin-1-yl]-N-{8-fluoro-2-methylimidazo[1,2-a]pyridin-6-yl}-2-methylindazole-7-carboxamide]
HTT mRNA [1]
  IC50: > 10 µM
  AC50: > 10 µM
MYB mRNA; [3]
  AC50: 1 to 10 µM
MYB mRNA; [4]
  IC50: 0.1 to 1 µM
MYB mRNA; [5]
  IC50: 0.1 to 1 µM
SMN2 mRNA
  IC50: 0.1 to 1 µM
Target C mRNA
  IC50: > 10 µM
HTT mRNA [2]
  IC50: > 10 µM

## Cc1cn2cc(NC(=O)c3ccc(N4CC[C@@H](NC5CC5)C4)c4cn(C)nc34)cc(F)c2n1 [Compound 371, 4-[(3R)-3-(cyclopropylamino)pyrrolidin-1-yl]-N-{8-fluoro-2-methylimidazo[1,2-a]pyridin-6-yl}-2-methylindazole-7-carboxamide]
HTT mRNA [1]
  IC50: 0.1 to 1 µM
  AC50: 0.1 to 1 µM
MYB mRNA; [3]
  AC50: < 0.1 µM
MYB mRNA; [4]
  IC50: < 0.1 µM
MYB mRNA; [5]
  IC50: < 0.1 µM
SMN2 mRNA
  IC50: < 0.1 µM
Target C mRNA
  IC50: > 10 µM
HTT mRNA [2]
  IC50: > 10 µM
